{
  "source": "ChEMBL document CHEMBL4184188",
  "about": "“Characterization of tyrosinase inhibitory constituents from the aerial parts of Humulus japonicus using LC-MS/MS coupled online assay” (Bioorg Med Chem, 2018)",
  "note": "Calls of active or inactive are those of the source. The calls are words filed in the database; no cut-off is given here.",
  "data": [
    {"molecular_target": "T1, Tyrosinase (Agaricus bisporus) (UniProt O42713)", "T1 sequence (whole entry)": "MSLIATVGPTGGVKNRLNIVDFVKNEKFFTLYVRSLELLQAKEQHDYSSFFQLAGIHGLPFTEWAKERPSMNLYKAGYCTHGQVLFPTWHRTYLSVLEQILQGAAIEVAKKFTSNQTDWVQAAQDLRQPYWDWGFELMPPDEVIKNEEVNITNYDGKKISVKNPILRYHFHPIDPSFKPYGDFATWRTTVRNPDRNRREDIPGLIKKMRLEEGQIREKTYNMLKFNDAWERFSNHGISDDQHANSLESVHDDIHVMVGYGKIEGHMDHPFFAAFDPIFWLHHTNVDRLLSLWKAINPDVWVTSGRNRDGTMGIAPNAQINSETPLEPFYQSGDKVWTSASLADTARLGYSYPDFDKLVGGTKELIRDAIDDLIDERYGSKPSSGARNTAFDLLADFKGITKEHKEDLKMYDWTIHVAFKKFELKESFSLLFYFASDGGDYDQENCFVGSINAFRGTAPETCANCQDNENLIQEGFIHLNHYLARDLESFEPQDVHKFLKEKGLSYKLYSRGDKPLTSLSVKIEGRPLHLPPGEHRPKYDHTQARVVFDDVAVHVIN", "test": "Inhibition of mushroom tyrosinase using tyrosine as substrate pretreated for 5 mins followed by substrate addition measured after 20 mins by ELISA", "values": [
      {"molecule": "COc1cc(C(C)=O)ccc1O", "inhibition": "inactive"},
      {"molecule": "NC(=O)c1cccnc1", "inhibition": "Active"},
      {"molecule": "CC1=CC(=O)CC(C)(C)[C@@]1(O)CC[C@H](C)O", "inhibition": "inactive"},
      {"molecule": "O=C(O)c1ccc(O)cc1", "inhibition": "Active"},
      {"molecule": "O=C(O)c1ccccc1", "inhibition": "Active"},
      {"molecule": "COc1ccc(C=O)cc1O", "inhibition": "inactive"},
      {"molecule": "CC1(C)C[C@@H](O)C[C@]2(C)OC(=O)C=C12", "inhibition": "inactive"},
      {"molecule": "O=c1cc[nH]c(=O)[nH]1", "inhibition": "Active"},
      {"molecule": "O=C(O)c1c[nH]c2ccccc12", "inhibition": "Active"},
      {"molecule": "CC(=O)/C=C/[C@H]1C(C)=C[C@H](O)CC1(C)C", "inhibition": "inactive"},
      {"molecule": "NC(=O)/C=C/c1ccc(O)cc1", "inhibition": "Active"},
      {"molecule": "COc1ccc(C(C)=O)cc1OC", "inhibition": "inactive"},
      {"molecule": "C/C(=C\\COC(=O)c1ccccc1)CO[C@@H]1O[C@H](CO)[C@@H](O)[C@H](O)[C@H]1O", "inhibition": "Active"},
      {"molecule": "COC(=O)c1c[nH]c2ccccc12", "inhibition": "Active"},
      {"molecule": "COc1cc2ccc(=O)oc2cc1O", "inhibition": "Active"},
      {"molecule": "COc1cc(C(=O)O)ccc1O", "inhibition": "inactive"},
      {"molecule": "C=CCc1ccc(O[C@@H]2O[C@H](CO)[C@@H](O)[C@H](O)[C@H]2O)c(OC)c1", "inhibition": "inactive"},
      {"molecule": "O=c1cc(-c2ccc(O)cc2)oc2c([C@@H]3O[C@H](CO)[C@@H](O)[C@H](O)[C@H]3O)c(O)cc(O)c12", "inhibition": "inactive"},
      {"molecule": "COc1cc2oc(=O)ccc2cc1O", "inhibition": "Active"},
      {"molecule": "O=c1cc(-c2ccc(O)c(O)c2)oc2cc(O)cc(O)c12", "inhibition": "Active"},
      {"molecule": "O=Cc1ccccc1", "inhibition": "Active"},
      {"molecule": "CC1=CC(=O)CC(C)(C)/C1=C/C[C@@H](C)O", "inhibition": "inactive"},
      {"molecule": "O=c1cc(-c2ccc(O)cc2)oc2cc(O)cc(O)c12", "inhibition": "Active"},
      {"molecule": "CC(=O)C=C=C1C(C)(C)C[C@H](O)C[C@@]1(C)O", "inhibition": "inactive"},
      {"molecule": "O=C(/C=C\\c1ccc(O)cc1)NCCc1ccc(O)cc1", "inhibition": "Active"},
      {"molecule": "COc1cc(/C=C\\C(=O)NCCc2ccc(O)cc2)ccc1O", "inhibition": "inactive"},
      {"molecule": "CC(=O)/C=C/[C@@]12O[C@]1(C)C[C@@H](O)CC2(C)C", "inhibition": "inactive"},
      {"molecule": "O=C(/C=C/c1ccc(O)cc1)NCCc1ccc(O)cc1", "inhibition": "Active"},
      {"molecule": "O=Cc1c[nH]c2ccccc12", "inhibition": "Active"},
      {"molecule": "CC(=O)/C=C/[C@@]1(O)C(C)=CC(=O)CC1(C)C", "inhibition": "inactive"},
      {"molecule": "CC1(C)C[C@@H](O)C[C@@]2(C)OC(=O)C=C12", "inhibition": "inactive"},
      {"molecule": "COc1cc(/C=C/C(=O)NCCc2ccc(O)cc2)ccc1O", "inhibition": "inactive"},
      {"molecule": "CCOC(C)=O", "inhibition": "Active"},
      {"molecule": "C/C(=C\\COC(=O)c1ccccc1O)CO[C@@H]1O[C@H](CO)[C@@H](O)[C@H](O)[C@H]1O", "inhibition": "Active"}
    ]},
    {"molecular_target": "T1, Tyrosinase (Agaricus bisporus)", "test": "Inhibition of mushroom tyrosinase at 100 uM using tyrosine as substrate pretreated for 5 mins followed by substrate addition measured after 20 mins by ELISA relative to control", "units": {"inhibition": "%"}, "values": [
      {"molecule": "COc1cc2ccc(=O)oc2cc1O", "inhibition": "> 30"},
      {"molecule": "COc1cc2oc(=O)ccc2cc1O", "inhibition": "> 30"},
      {"molecule": "O=Cc1c[nH]c2ccccc12", "inhibition": "> 30"},
      {"molecule": "C/C(=C\\COC(=O)c1ccccc1O)CO[C@@H]1O[C@H](CO)[C@@H](O)[C@H](O)[C@H]1O", "inhibition": "> 30"}
    ]}
  ]
}
